Test results reported in PubChem BioAssay (NCI).
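Exposure lasted 48 hours, with cells grown in 96-well plates and compounds tested at five concentrations. TGI is the concentration that stops growth completely.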

How the values were obtained:
Experiment in all cases: inhibition of tumour cell growth, NCI panel, 48 h
SK-MEL-5 melanoma = tested on: SK-MEL-5 melanoma
U251 CNS = tested on: U251 CNS
OVCAR-8 ovarian = tested on: OVCAR-8 ovarian
HCC-2998 colon = tested on: HCC-2998 colon
OVCAR-4 ovarian = tested on: OVCAR-4 ovarian
M19-MEL melanoma = tested on: M19-MEL melanoma
SF-268 CNS = tested on: SF-268 CNS
ACHN renal = tested on: ACHN renal
A498 renal = tested on: A498 renal
OVCAR-5 ovarian = tested on: OVCAR-5 ovarian
LXFL 529 NSCLC = tested on: LXFL 529 NSCLC
DLD-1 colon = tested on: DLD-1 colon
SNB-19 CNS = tested on: SNB-19 CNS
HOP-92 NSCLC = tested on: HOP-92 NSCLC
NCI-H460 lung = tested on: NCI-H460 lung
EKVX NSCLC = tested on: EKVX NSCLC
RXF-631 renal = tested on: RXF-631 renal
A549 NSCLC = tested on: A549 NSCLC
SK-MEL-2 melanoma = tested on: SK-MEL-2 melanoma
SK-OV-3 ovarian = tested on: SK-OV-3 ovarian
CAKI-1 renal = tested on: CAKI-1 renal
HOP-62 NSCLC = tested on: HOP-62 NSCLC
M14 melanoma = tested on: M14 melanoma
UACC-257 melanoma = tested on: UACC-257 melanoma
HL-60(TB) leukemia = tested on: HL-60(TB) leukemia
UACC-62 melanoma = tested on: UACC-62 melanoma
TK-10 renal = tested on: TK-10 renal
MALME-3M melanoma = tested on: MALME-3M melanoma
SF-295 CNS = tested on: SF-295 CNS
NCI-H23 lung = tested on: NCI-H23 lung
COLO 205 colon = tested on: COLO 205 colon
SNB-75 CNS = tested on: SNB-75 CNS
UO-31 renal = tested on: UO-31 renal
MOLT-4 leukemia = tested on: MOLT-4 leukemia
IGROV1 ovarian = tested on: IGROV1 ovarian
RPMI-8226 leukemia = tested on: RPMI-8226 leukemia
SR leukemia = tested on: SR leukemia
SN12C renal = tested on: SN12C renal
K-562 leukemia = tested on: K-562 leukemia
SF-539 CNS = tested on: SF-539 CNS
RXF 393 renal = tested on: RXF 393 renal
HCT-116 colon = tested on: HCT-116 colon
DMS 273 small cell lung = tested on: DMS 273 small cell lung
SW-620 colon = tested on: SW-620 colon
SNB-78 CNS = tested on: SNB-78 CNS
DMS 114 small cell lung = tested on: DMS 114 small cell lung
HCT-15 colon = tested on: HCT-15 colon
OVCAR-3 ovarian = tested on: OVCAR-3 ovarian
KM12 colon = tested on: KM12 colon
XF 498 CNS = tested on: XF 498 CNS
KM20L2 colon = tested on: KM20L2 colon
HOP-18 NSCLC = tested on: HOP-18 NSCLC
786-0 renal = tested on: 786-0 renal
CCRF-CEM leukemia = tested on: CCRF-CEM leukemia
NCI-H226 lung = tested on: NCI-H226 lung
HT29 colon = tested on: HT29 colon
NCI-H522 lung = tested on: NCI-H522 lung
LOX IMVI melanoma = tested on: LOX IMVI melanoma

SMILES: Cn1cnc2[nH]c(=O)[nH]c(=S)c21
- TGI (SK-MEL-5 melanoma): > 100 µM
- TGI (U251 CNS): > 100 µM
- TGI (OVCAR-8 ovarian): > 100 µM
- TGI (HCC-2998 colon): > 100 µM
- TGI (OVCAR-4 ovarian): > 100 µM
- TGI (M19-MEL melanoma): > 100 µM
- TGI (SF-268 CNS): > 100 µM
- TGI (ACHN renal): > 100 µM
- TGI (A498 renal): > 100 µM
- TGI (OVCAR-5 ovarian): > 100 µM
- TGI (LXFL 529 NSCLC): > 100 µM
- TGI (DLD-1 colon): > 100 µM
- TGI (SNB-19 CNS): > 100 µM
- TGI (HOP-92 NSCLC): > 100 µM
- TGI (NCI-H460 lung): > 100 µM
- TGI (EKVX NSCLC): > 100 µM
- TGI (RXF-631 renal): > 100 µM
- TGI (A549 NSCLC): > 100 µM
- TGI (SK-MEL-2 melanoma): > 100 µM
- TGI (SK-OV-3 ovarian): > 100 µM
- TGI (CAKI-1 renal): > 100 µM
- TGI (HOP-62 NSCLC): > 100 µM
- TGI (M14 melanoma): > 100 µM
- TGI (UACC-257 melanoma): > 100 µM
- TGI (HL-60(TB) leukemia): > 100 µM
- TGI (UACC-62 melanoma): > 100 µM
- TGI (TK-10 renal): > 100 µM
- TGI (MALME-3M melanoma): > 100 µM
- TGI (SF-295 CNS): > 100 µM
- TGI (NCI-H23 lung): > 100 µM
- TGI (COLO 205 colon): > 100 µM
- TGI (SNB-75 CNS): > 100 µM
- TGI (UO-31 renal): > 100 µM
- TGI (MOLT-4 leukemia): > 100 µM
- TGI (IGROV1 ovarian): > 100 µM
- TGI (RPMI-8226 leukemia): > 100 µM
- TGI (SR leukemia): > 100 µM
- TGI (SN12C renal): > 100 µM
- TGI (K-562 leukemia): > 100 µM
- TGI (SF-539 CNS): > 100 µM
- TGI (RXF 393 renal): > 100 µM
- TGI (HCT-116 colon): > 100 µM
- TGI (DMS 273 small cell lung): > 100 µM
- TGI (SW-620 colon): > 100 µM
- TGI (SNB-78 CNS): > 100 µM
- TGI (DMS 114 small cell lung): > 100 µM
- TGI (HCT-15 colon): > 100 µM
- TGI (OVCAR-3 ovarian): > 100 µM
- TGI (KM12 colon): > 100 µM
- TGI (XF 498 CNS): > 100 µM
- TGI (KM20L2 colon): > 100 µM
- TGI (HOP-18 NSCLC): > 100 µM
- TGI (786-0 renal): > 100 µM
- TGI (CCRF-CEM leukemia): > 100 µM
- TGI (NCI-H226 lung): > 100 µM
- TGI (HT29 colon): > 100 µM
- TGI (NCI-H522 lung): > 100 µM

SMILES: C[Si](C)(C)/N=C1\N2C(=NC1(C(F)(F)F)C(F)(F)F)Sc1ccccc12
- TGI (SK-MEL-5 melanoma): > 50 µM
- TGI (U251 CNS): > 50 µM
- TGI (OVCAR-8 ovarian): > 50 µM
- TGI (HCC-2998 colon): > 50 µM
- TGI (OVCAR-4 ovarian): > 50 µM
- TGI (M19-MEL melanoma): > 50 µM
- TGI (SF-268 CNS): > 50 µM
- TGI (ACHN renal): > 50 µM
- TGI (A498 renal): > 50 µM
- TGI (OVCAR-5 ovarian): > 50 µM
- TGI (LXFL 529 NSCLC): > 50 µM
- TGI (DLD-1 colon): > 50 µM
- TGI (SNB-19 CNS): > 50 µM
- TGI (HOP-92 NSCLC): > 50 µM
- TGI (NCI-H460 lung): > 50 µM
- TGI (EKVX NSCLC): > 50 µM
- TGI (RXF-631 renal): > 50 µM
- TGI (A549 NSCLC): > 50 µM
- TGI (SK-MEL-2 melanoma): > 50 µM
- TGI (SK-OV-3 ovarian): > 50 µM
- TGI (CAKI-1 renal): > 50 µM
- TGI (HOP-62 NSCLC): > 50 µM
- TGI (M14 melanoma): > 50 µM
- TGI (UACC-257 melanoma): > 50 µM
- TGI (HL-60(TB) leukemia): > 50 µM
- TGI (UACC-62 melanoma): > 50 µM
- TGI (TK-10 renal): > 50 µM
- TGI (MALME-3M melanoma): > 50 µM
- TGI (SF-295 CNS): > 50 µM
- TGI (NCI-H23 lung): > 50 µM
- TGI (COLO 205 colon): > 50 µM
- TGI (SNB-75 CNS): > 50 µM
- TGI (UO-31 renal): > 50 µM
- TGI (MOLT-4 leukemia): > 50 µM
- TGI (IGROV1 ovarian): > 50 µM
- TGI (RPMI-8226 leukemia): > 50 µM
- TGI (SR leukemia): > 50 µM
- TGI (SN12C renal): > 50 µM
- TGI (K-562 leukemia): > 50 µM
- TGI (SF-539 CNS): > 50 µM
- TGI (RXF 393 renal): > 50 µM
- TGI (HCT-116 colon): > 50 µM
- TGI (DMS 273 small cell lung): > 50 µM
- TGI (SW-620 colon): > 50 µM
- TGI (SNB-78 CNS): > 50 µM
- TGI (DMS 114 small cell lung): > 50 µM
- TGI (HCT-15 colon): > 50 µM
- TGI (OVCAR-3 ovarian): > 50 µM
- TGI (KM12 colon): > 50 µM
- TGI (XF 498 CNS): > 50 µM
- TGI (LOX IMVI melanoma): > 50 µM
- TGI (KM20L2 colon): > 50 µM
- TGI (HOP-18 NSCLC): > 50 µM
- TGI (786-0 renal): > 50 µM
- TGI (CCRF-CEM leukemia): > 50 µM
- TGI (NCI-H226 lung): > 50 µM
- TGI (HT29 colon): > 50 µM
- TGI (NCI-H522 lung): > 50 µM

SMILES: COc1ccc(C(=O)Cc2ccc(Cl)cc2)cc1OC
- TGI (SK-MEL-5 melanoma): > 100 µM
- TGI (U251 CNS): > 100 µM
- TGI (OVCAR-8 ovarian): > 100 µM
- TGI (HCC-2998 colon): > 100 µM
- TGI (OVCAR-4 ovarian): > 100 µM
- TGI (M19-MEL melanoma): > 100 µM
- TGI (SF-268 CNS): > 100 µM
- TGI (ACHN renal): > 100 µM
- TGI (A498 renal): > 100 µM
- TGI (OVCAR-5 ovarian): > 100 µM
- TGI (LXFL 529 NSCLC): > 100 µM
- TGI (DLD-1 colon): > 100 µM
- TGI (SNB-19 CNS): > 100 µM
- TGI (NCI-H460 lung): > 100 µM
- TGI (EKVX NSCLC): > 100 µM
- TGI (RXF-631 renal): > 100 µM
- TGI (A549 NSCLC): > 100 µM
- TGI (SK-MEL-2 melanoma): > 100 µM
- TGI (SK-OV-3 ovarian): > 100 µM
- TGI (CAKI-1 renal): > 100 µM
- TGI (HOP-62 NSCLC): > 100 µM
- TGI (M14 melanoma): > 100 µM
- TGI (UACC-257 melanoma): > 100 µM
- TGI (HL-60(TB) leukemia): > 100 µM
- TGI (UACC-62 melanoma): > 100 µM
- TGI (TK-10 renal): > 100 µM
- TGI (MALME-3M melanoma): > 100 µM
- TGI (SF-295 CNS): > 100 µM
- TGI (NCI-H23 lung): > 100 µM
- TGI (SNB-75 CNS): 86.9 µM
- TGI (UO-31 renal): > 100 µM
- TGI (MOLT-4 leukemia): > 100 µM
- TGI (IGROV1 ovarian): > 100 µM
- TGI (RPMI-8226 leukemia): > 100 µM
- TGI (SR leukemia): > 100 µM
- TGI (SN12C renal): > 100 µM
- TGI (K-562 leukemia): > 100 µM
- TGI (SF-539 CNS): > 100 µM
- TGI (RXF 393 renal): > 100 µM
- TGI (HCT-116 colon): > 100 µM
- TGI (DMS 273 small cell lung): > 100 µM
- TGI (SW-620 colon): > 100 µM
- TGI (SNB-78 CNS): > 100 µM
- TGI (DMS 114 small cell lung): > 100 µM
- TGI (HCT-15 colon): > 100 µM
- TGI (OVCAR-3 ovarian): > 100 µM
- TGI (XF 498 CNS): > 100 µM
- TGI (LOX IMVI melanoma): > 100 µM
- TGI (KM20L2 colon): > 100 µM
- TGI (HOP-18 NSCLC): > 100 µM
- TGI (CCRF-CEM leukemia): > 100 µM
- TGI (NCI-H226 lung): > 100 µM
- TGI (HT29 colon): > 100 µM
- TGI (NCI-H522 lung): > 100 µM
